Test results reported in PMC3760505 (Bioorganic & medicinal chemistry letters, 2009).

Columns and labels:
in vitro = settings: human, Jurkat cells
rhodesain = rhodesain (Trypanosoma brucei rhodesiense, UniProt Q95PM0); experiment: biochemical; settings: read-out: rhodesain inhibition kinetics kinact/Ki
[1] = test system: T. brucei brucei parasites
cruzain = cruzain (Trypanosoma cruzi, UniProt P25779); settings: initial survey of non-peptidic P2/P3 moieties
[2] = test system: T. brucei brucei parasites; experiment: microbe, parasite or virus in culture; settings: Trypanosoma brucei, read-out: parasite growth inhibition GI50 T.b.b parasites
Jurkat cells = settings: at 10 uM

Chain of rhodesain (Q95PM0 1-450): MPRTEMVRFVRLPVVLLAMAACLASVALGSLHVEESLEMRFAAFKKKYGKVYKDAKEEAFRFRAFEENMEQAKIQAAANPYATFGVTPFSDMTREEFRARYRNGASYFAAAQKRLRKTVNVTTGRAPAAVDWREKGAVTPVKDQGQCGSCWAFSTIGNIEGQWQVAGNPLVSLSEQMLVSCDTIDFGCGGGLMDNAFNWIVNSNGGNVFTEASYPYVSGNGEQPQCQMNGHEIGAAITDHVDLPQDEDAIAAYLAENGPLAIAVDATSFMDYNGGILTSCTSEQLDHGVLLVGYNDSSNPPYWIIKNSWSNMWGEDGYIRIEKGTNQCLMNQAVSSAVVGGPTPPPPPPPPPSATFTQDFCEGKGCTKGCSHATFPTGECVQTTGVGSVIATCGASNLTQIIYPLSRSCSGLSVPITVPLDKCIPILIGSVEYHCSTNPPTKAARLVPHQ
Chain of cruzain (P25779 123-467): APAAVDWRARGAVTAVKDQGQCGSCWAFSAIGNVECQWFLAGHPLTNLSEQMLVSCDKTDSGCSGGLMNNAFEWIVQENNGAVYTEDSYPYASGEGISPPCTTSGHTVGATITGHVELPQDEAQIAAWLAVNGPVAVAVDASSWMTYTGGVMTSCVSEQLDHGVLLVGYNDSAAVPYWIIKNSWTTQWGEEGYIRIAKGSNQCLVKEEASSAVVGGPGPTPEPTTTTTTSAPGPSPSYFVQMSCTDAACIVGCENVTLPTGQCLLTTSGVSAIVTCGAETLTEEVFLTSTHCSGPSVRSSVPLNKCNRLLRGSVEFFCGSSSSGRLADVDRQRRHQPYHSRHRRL

SMILES | IC50 (in vitro) | kinact/KI (rhodesain) | effect against cultured parasites (in words) [1] | other results
Cc1nc(-c2ccccc2)sc1C(=O)N[C@H](/C=C/S(=O)(=O)c1ccccc1)CCc1ccccc1 [3a] | > 100 µM | 84000 M⁻¹ s⁻¹ | ineffective against cultured parasites | –
CC(C)(C)c1cc(C(=O)N[C@H](/C=C/S(=O)(=O)c2ccccc2)CCc2ccccc2)n(Cc2ccccc2)n1 [compound 6] | – | – | – | enzyme activity (in words) (cruzain): ineffective
O=C(N[C@H](/C=C/S(=O)(=O)c1ccccc1)CCc1ccccc1)[C@H]1CCCC[C@@H]1C(=O)c1ccc(Cl)cc1 [7b] | – | 2160 M⁻¹ s⁻¹ | – | –
Cc1onc(-c2ccc(F)cc2)c1C(=O)N[C@H](/C=C/S(=O)(=O)c1ccccc1)CCc1ccccc1 [compound 5] | – | – | – | enzyme activity (in words) (cruzain): ineffective
O=C(N[C@H](/C=C/S(=O)(=O)c1ccccc1)CCc1ccccc1)c1cc(-c2cccnc2)no1 [4c] | > 100 µM | – | – | –
Cc1nc(-c2cnccn2)sc1C(=O)N[C@H](/C=C/S(=O)(=O)c1ccccc1)CCc1ccccc1 [3c] | > 100 µM | 25200 M⁻¹ s⁻¹ | antiparasitic effects at low micromolar concentration | –
Cc1nc(-c2cccnc2)sc1C(=O)N[C@H](/C=C/S(=O)(=O)c1ccccc1)CCc1ccccc1 [3b] | – | – | antiparasitic effects at low micromolar concentration | –
O=C(N[C@H](/C=C/S(=O)(=O)c1ccccc1)CCc1ccccc1)[C@@H]1CCCC[C@H]1C(=O)c1ccc(Cl)cc1 [7a] | > 100 µM | 9750 M⁻¹ s⁻¹ | – | GI50 [2]: 12 µM
O=C(N[C@H](/C=C/S(=O)(=O)c1ccccc1)CCc1ccccc1)c1cc(-c2ccncc2)no1 [4b] | > 100 µM | 8590 M⁻¹ s⁻¹ | antiparasitic effects at low micromolar concentration | –
CN1CCN(C(=O)N[C@@H](Cc2ccccc2)C(=O)N[C@H](/C=C/S(=O)(=O)c2ccccc2)CCc2ccccc2)CC1 [K-777 (1)] | – | – | – | cytotoxicity Jurkat cells, percent at single concentration (Jurkat cells): 3% at 10 uM
O=C(N[C@H](/C=C/S(=O)(=O)c1ccccc1)CCc1ccccc1)c1cc(-c2ccccn2)no1 [4d] | > 100 µM | 7720 M⁻¹ s⁻¹ | antiparasitic effects at low micromolar concentration | –
O=C(N[C@H](/C=C/S(=O)(=O)c1ccccc1)CCc1ccccc1)c1cc(-c2ccccc2)no1 [4a] | > 100 µM | 3610 M⁻¹ s⁻¹ | ineffective against cultured parasites | –
